In one assay the test system is NZ9000Erm strain. As to the kind of experiment: Growth inhibition (IC50) of nisin and variants, sensitive strain. The following applies: from IC50 values against NZ9000Erm. The class given is cell-based, Lactococcus lactis.
The subject of a further assay is NZ9000NisFEG strain. As to the kind of experiment: Growth inhibition (IC50) of nisin and variants, NisFEG-expressing strain. In kind it is cell-based, Lactococcus lactis. The following applies: for Fold of immunity mediated by NisFEG: IC50 against NZ9000NisFEG compared with IC50 against NZ9000Erm; for Activity of NisFEG reduced to: fold of immunity for the variant relative to wild-type nisin. The protocol:
The NZ9000NisFEG and NZ9000NisFH181AEG strains were grown in GM17 media supplemented with 5 μg/mL chloramphenicol to an OD600 of 0.8. By the addition of nisin (final concentration of 1 ng/mL), the expression was induced and the culture was further grown overnight. After 15 h, the cells were diluted to an OD600 of 0.1 in fresh media supplemented with 5 μg/mL chloramphenicol and with the inducer nisin (10 ng/mL).
The NZ9000, NZ9000NisFEG, and NZ9000NisFH181AEG strains were grown overnight in GM17 media supplemented with 5 μg/mL chloramphenicol in the presence of 1 ng/mL nisin. The diluted cells (final OD600 was 0.1) were incubated with a serial dilution of nisin or its variants with 50 mmol/L lactic acid in a 96 well microtiter plate. The total volume in each well was 200 μL, consisting of 50 μL nisin and 150 μL GM17 containing the corresponding L. lactis strain.
The plate was incubated at 30°C. After 5 h, the optical density was measured at 620 nm via 96-plate reader BMG. The normalized optical density was plotted against the logarithm of the nisin concentration in order to calculate the IC50 of nisin and the data was evaluated using the following equation (1): [drawing 1] 1
The IC50 value is the concentration of nisin were the growth of the L. lactis strain is inhibited by 50% as described in more detail earlier (Abts et al. [2011]).

Take `C=C1NC(=O)[C@H]([C@@H](C)CC)NC(=O)[C@H](NC(=O)/C(=C/C)NC(=O)[C@@H](N)[C@@H](C)CC)CSC[C@@H](C(=O)N[C@H]2C(=O)N3CCC[C@H]3C(=O)NCC(=O)N[C@H](C(=O)N[C@@H](CCCCN)C(=O)N[C@H]3C(=O)NCC(=O)N[C@@H](C)C(=O)N[C@@H](CC(C)C)C(=O)N[C@@H](CCSC)C(=O)NCC(=O)N[C@H](C(=O)N[C@@H](CC(N)=O)C(=O)N[C@@H](CCSC)C(=O)N[C@@H](CCCCN)C(=O)O)CS[C@H]3C)CS[C@H]2C)NC(=O)[C@H](CC(C)C)NC1=O` [Nisin1-22]: the “Fold reduction of antimicrobial activity compared to wild-type nisin” value with NZ9000Erm strain was found to be 25 fold. Besides, in the assay with NZ9000NisFEG strain, the “Fold of immunity mediated by NisFEG” value was 2.5 fold and the “Activity of NisFEG reduced to” value is recorded as 33%.
In the case of `C=C1NC(=O)[C@H]([C@@H](C)CC)NC(=O)[C@H](NC(=O)/C(=C/C)NC(=O)[C@@H](N)[C@@H](C)CC)CSC[C@@H](C(=O)N[C@H]2C(=O)N3CCC[C@H]3C(=O)NCC(=O)N[C@H](C(=O)N[C@@H](CCCCN)C(=O)N[C@H]3C(=O)NCC(=O)N[C@@H](C)C(=O)N[C@@H](CC(C)C)C(=O)N[C@@H](CCSC)C(=O)NCC(=O)N[C@H](C(=O)N[C@@H](CC(N)=O)C(=O)N[C@@H](CCSC)C(=O)N[C@@H](CCCCN)C(=O)N[C@H]4C(=O)N[C@@H](C)C(=O)N[C@H]5C(=O)N[C@@H](CS[C@H]4C)C(=O)N[C@@H](Cc4c[nH]cn4)C(=O)N[C@H](C(=O)O)CS[C@H]5C)CS[C@H]3C)CS[C@H]2C)NC(=O)[C@H](CC(C)C)NC1=O` [Nisin1-28], the “Fold reduction of antimicrobial activity compared to wild-type nisin” value in the assay with NZ9000Erm strain turned out to be 20 fold. For the same compound, in the assay on NZ9000NisFEG strain, the “Fold of immunity mediated by NisFEG” value is recorded as 3.8 fold and the “Activity of NisFEG reduced to” value is on record as 60%. Moreover, the “Reduction of NisFEG activity / fold of immunity” value in the assay on NZ9000NisFEG strain (decrease relative to wild-type nisin) amounted to 50%.

Source of the values: paper PMC4234265, “The C-terminus of nisin is important for the ABC transporter NisFEG to confer immunity in Lactococcus lactis” (MicrobiologyOpen, 2014).
